As usually defined, the IC50 is the concentration that gives 50% inhibition.

The target of one assay is T1, Recombinant NAMPT enzyme (Homo sapiens, UniProt P43490).
T1 construct: purchased MBL
Briefly: Inhibition of NAMPT enzymatic activity. Conditions: 6 hours at 37° C., NMN product detected. Type of assay: biochemical. As to the method:
Recombinant NAMPT enzyme (MBL) was briefly pre-incubated in the absence or presence of inhibitor followed by addition of nicotinamide. Enzymatic reaction was allowed to proceed for 6 hours at 37° C. Reaction was terminated and NMN reaction product detected using the method as described in: Zhang R Y, Qin Y, Lv X Q, Wang P, Xu T Y, Zhang L, Miao C Y., Anal. Biochem. 2011 May 1; 412(1):18-25.
(§1) The 50% inhibitory concentration (IC50) is the concentration at which 50% of the maximal activity was inhibited.

Assay [1] deals with chronic myelogenous leukemia (K562). Kind of assay: Anti-proliferative activity on K562 cell line. In kind it is cell-based. Conditions: Homo sapiens, K562, 72 h, CellTiterGlo. As for the experimental part:
(§2) Leukemia/Lymphoma cell lines (ATCC) were diluted in vendor-recommended media and incubated in the absence or presence of inhibitor for 72 hours at 37° C./5% CO2 prior to viability determination using CellTiterGlo (Promega) per manufacturer's instruction. The human cell lines studied include acute T-cell leukemia (JURKAT), chronic myelogenous leukemia (K562), and B-cell acute lymphocytic leukemia (NALM6 and SUP-B15).
(In ATP-based viability assays light output follows the ATP content of the culture.)

Another assay concerns primary human B cells. Kind of assay: Anti-proliferative activity on B cells (anti-IgM stimulated, CellTiterGlo). Type of assay: cell-based. Conditions: B-cell, 72 h, anti-IgM 10 ug/ml. As to the method: Fresh primary human B cells obtained from Analytical Biological Services (Wilmington, Del.) were diluted to 1×10^^6 cells per ml in AIM-V medium (Invitrogen), and stimulated with anti-IgM (10 ug/ml) (KPL) in the absence or presence of inhibitor for 72 hours at 37° C./5% CO2 prior to viability determination using CellTiterGlo (Promega) per manufacturer's instruction.
as §1

Assay [2] deals with B-cell acute lymphocytic leukemia (SUP-B15). Kind of assay: Anti-proliferative activity on SUP-B15 cell line. Type of assay: cell-based. Conditions: Homo sapiens, SUP-B15, 72 h, CellTiterGlo. As to the method: as §2
The test system of assay [3] is B-cell acute lymphocytic leukemia (NALM6). Kind of assay: Anti-proliferative activity on NALM6 cell line. Conditions: Homo sapiens, NALM-6, 72 h, CellTiterGlo. In kind it is cell-based. As to the method:
as §2

Assay [4] concerns acute T-cell leukemia (JURKAT). Briefly: Anti-proliferative activity on JURKAT cell line. Conditions: Homo sapiens, 72 h, CellTiterGlo. Type of assay: cell-based. As to the method:
as §2

In a further assay the test system is primary human T cells. Kind of assay: Anti-proliferative activity on T cells (CD3/CD28 stimulated, CellTiterGlo). In kind it is cell-based. Conditions: T-cell, 72 h, CD3/CD28 beads. As for the experimental part: Fresh primary human T cells obtained from Analytical Biological Services (Wilmington, Del.) were diluted to 1×10^^6 cells per ml in AIM-V medium (Invitrogen), and stimulated with CD3/CD28 beads (Invitrogen) in the absence or presence of inhibitor for 72 hours at 37° C./5% CO2 prior to viability determination using CellTiterGlo (Promega) per manufacturer's instruction.
as §1

T1 sequence (P43490 whole entry): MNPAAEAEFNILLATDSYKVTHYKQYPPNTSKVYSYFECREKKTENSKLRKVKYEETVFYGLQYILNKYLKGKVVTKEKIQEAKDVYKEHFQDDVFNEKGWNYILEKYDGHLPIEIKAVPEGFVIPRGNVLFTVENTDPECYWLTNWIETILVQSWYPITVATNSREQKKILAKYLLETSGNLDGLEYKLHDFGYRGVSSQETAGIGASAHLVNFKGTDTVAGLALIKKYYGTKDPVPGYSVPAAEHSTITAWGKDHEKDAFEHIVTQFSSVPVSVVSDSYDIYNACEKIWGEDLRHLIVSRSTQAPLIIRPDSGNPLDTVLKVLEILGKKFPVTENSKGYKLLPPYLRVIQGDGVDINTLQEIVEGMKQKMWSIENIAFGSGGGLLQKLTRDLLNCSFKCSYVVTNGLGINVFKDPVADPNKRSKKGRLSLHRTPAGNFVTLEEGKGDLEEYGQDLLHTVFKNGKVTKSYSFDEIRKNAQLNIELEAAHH

`CCCCN1CCC2(CC1)CC(=O)c1cc(-c3ccc(C(=O)NCc4cncs4)cn3)ccc1O2` [6-(1′-butyl-4-oxospiro[chroman-2,4′-piperidin]-6-yl)-N-(thiazol-5-ylmethyl)nicotinamide]: the IC50 on Recombinant NAMPT enzyme came to 29.9 nM; in assay [1] it was 19.8 nM; in the assay on primary human B cells it was 24.8 nM; in assay [2], 1.03 nM; in assay [3], 5.73 nM; in assay [4], 8.85 nM. Also, in the assay on primary human T cells, the IC50 was found to be 1880 nM.

On to `CCN1CCC2(CC1)CC(=O)c1cc(-c3ccc(C(=O)NCc4cncs4)cn3)ccc1O2` [6-(1′-ethyl-4-oxospiro[chroman-2,4′-piperidin]-6-yl)-N-(thiazol-5-ylmethyl)nicotinamide], for which the IC50 was determined as 271 nM on Recombinant NAMPT enzyme; 180 nM in assay [1]; 50.9 nM in the assay on primary human B cells; 5.15 nM in assay [2]; 21.6 nM in assay [3]; 43.6 nM in assay [4]. Moreover, the IC50 in the assay with primary human T cells worked out at 3360 nM.

As to `CC(C)N1CCC2(CC1)Oc1ccc(-c3ccc(C(=O)NCc4cncs4)cn3)cc1C(=O)N2C` [6-(1′-isopropyl-3-methyl-4-oxo-3,4 dihydrospiro[benzo[e][1,3]oxazine-2,4′-piperidin]-6-yl)-N-(thiazol-5-ylmethyl)nicotinamide], the IC50 on Recombinant NAMPT enzyme worked out at 107 nM; in assay [1], 75.7 nM; in the assay with primary human B cells, 25.4 nM; in assay [2] it was 2.14 nM; in assay [3], 17.6 nM; in assay [4] it was 33 nM. Moreover, the IC50 in the assay on primary human T cells amounted to 1550 nM.

Take `CC(C)N1CCC2(CC1)Oc1ccc(-c3ccc(C(=O)NCc4cnn(C)c4)cn3)cc1C(=O)N2C` [6-(1′-isopropyl-3-methyl-4-oxo-3,4-dihydrospiro[benzo[e][1,3]oxazine-2,4′-piperidin]-6-yl)-N-((1-methyl-1H-pyrazol-4-yl)methyl)nicotinamide]: the IC50 at Recombinant NAMPT enzyme was 15 nM; in assay [1], 629 nM; in the assay with primary human B cells, 97.7 nM; in assay [2], 20.9 nM; in assay [3] it was 122 nM; in assay [4] it was 181 nM. In addition, the IC50 with primary human T cells amounted to 6110 nM.

As to `Cc1cc(CNC(=O)c2ccc(-c3ccc4c(c3)C(=O)NC3(CCN(C(C)C)CC3)O4)nc2)on1` [6-(1′-isopropyl-4-oxo-3,4-dihydrospiro[benzo[e][1,3]oxazine-2,4′-piperidin]-6-yl)-N-((3-methylisoxazol-5-yl)methyl)nicotinamide], the IC50 on Recombinant NAMPT enzyme is 3 nM; in assay [1] it was 876 nM; in the assay with primary human B cells it was 29.2 nM; in assay [2], 3.19 nM; in assay [3], 17.1 nM; in assay [4] it was 24.8 nM. Moreover, in the assay on primary human T cells, the IC50 turned out to be 14600 nM.

On to `CC(C)N1CCC2(CC1)CC(=O)c1cc(-c3ccc(C(=O)NCc4cnn(C)c4)cn3)ccc1O2` [6-(1′-isopropyl-4-oxospiro[chroman-2,4′-piperidin]-6-yl)-N-((1-methyl-1H-pyrazol-4-yl)methyl)nicotinamide], for which the IC50 at Recombinant NAMPT enzyme worked out at 14 nM; in assay [1], 304 nM; in the assay on primary human B cells it was 59.8 nM; in assay [2], 14.1 nM; in assay [3], 102 nM; in assay [4] it was 209 nM. The molecule also came in with an IC50 in the assay with primary human T cells of 5590 nM.

Consider `CCCN1CCC2(CC1)CC(=O)c1cc(-c3ccc(C(=O)NCc4cncs4)cn3)ccc1O2` [6-(4-oxo-1′-propylspiro[chroman-2,4′-piperidin]-6-yl)-N-(thiazol-5-ylmethyl)nicotinamide], for which the IC50 on Recombinant NAMPT enzyme was determined as 66.7 nM; in assay [1], 35.7 nM; with primary human B cells, 15.2 nM; in assay [2], 1.89 nM; in assay [3], 11.9 nM; in assay [4] it was 16.3 nM. In addition, it took 1080 nM to reach half-maximal inhibition in the assay with primary human T cells (IC50).

Turning to `CC(C)N1CCC2(CC1)CC(=O)c1cc(-c3ccc(C(=O)NCc4cccnc4F)cc3)ccc1O2` [N-((2-fluoropyridin-3-yl)methyl)-4-(1′-isopropyl-4-oxospiro[chroman-2,4′-piperidin]-6-yl)benzamide], the IC50 at Recombinant NAMPT enzyme came to 1 nM; in assay [1], 2.94 nM; with primary human B cells, 9.9 nM; in assay [2] it was 1.47 nM; in assay [3], 3.48 nM; in assay [4] it was 3.66 nM. In the assay with primary human T cells, this molecule yielded a half-maximal inhibitory concentration (IC50) of 5790 nM.

Turning to `CCc1cc(CNC(=O)c2ccc(-c3ccc4c(c3)C(=O)CC3(CCN(C(C)C)CC3)O4)cc2)on1` [N-((3-ethylisoxazol-5-yl)methyl)-4-(1′-isopropyl-4-oxospiro[chroman-2,4′-piperidin]-6-yl)benzamide], the IC50 was found to be 1 nM at Recombinant NAMPT enzyme; 44.7 nM in assay [1]; 21.3 nM in the assay with primary human B cells; 2.3 nM in assay [2]; 7.42 nM in assay [3]; 12.2 nM in assay [4]. In addition, the IC50 in the assay on primary human T cells worked out at 1720 nM.

Turning to `CCCN1CCC2(CC1)CC(=O)c1cc(-c3ccc(C(=O)NCc4cc(C)no4)cc3)ccc1O2` [N-((3-methylisoxazol-5-yl)methyl)-4-(4-oxo-1′-propylspiro[chroman-2,4′-piperidin]-6-yl)benzamide], the IC50 at Recombinant NAMPT enzyme was found to be 2 nM; in assay [1], 25 nM; in the assay on primary human B cells, 12.9 nM; in assay [2] it was 2.07 nM; in assay [3], 6.74 nM; in assay [4] it was 7.78 nM. Further, the IC50 with primary human T cells was 677 nM.

For `CCCN1CCC2(C=Cc3cc(-c4ccc(C(=O)NCc5cc(C)no5)cn4)ccc3O2)CC1` [N-((3-methylisoxazol-5-yl)methyl)-6-(1′-propylspiro[chromene-2,4′-piperidin]-6-yl)nicotinamide], the IC50 on Recombinant NAMPT enzyme came out at 1 nM; in assay [1] it was 25.8 nM; in the assay on primary human B cells, 4.4 nM; in assay [2], 1.04 nM; in assay [3], 3.63 nM; in assay [4], 6.38 nM. The midpoint of inhibition with primary human T cells, the IC50, lay at 342 nM.

For `CCCN1CCC2(CC1)CC(=O)c1cc(-c3ccc(C(=O)NCc4cc(C)no4)cn3)ccc1O2` [N-((3-methylisoxazol-5-yl)methyl)-6-(4-oxo-1′-propylspiro[chroman-2,4′-piperidin]-6-yl)nicotinamide], the IC50 on Recombinant NAMPT enzyme worked out at 1 nM; in assay [1] it was 19.4 nM; in the assay with primary human B cells, 5.9 nM; in assay [2], 0.706 nM; in assay [3] it was 2.25 nM; in assay [4], 3.54 nM. In the assay with primary human T cells, this molecule had a half-inhibitory concentration (IC50) of 731 nM.

For `CC(C)N1CCC2(CC1)Oc1ccc(-c3ccc(C(=O)NCc4cncc(F)c4)cc3)cc1C(=O)N2C` [N-((5-fluoropyridin-3-yl)methyl)-4-(1′-isopropyl-3-methyl-4-oxo-3,4-dihydrospiro[benzo[e][1,3]oxazine-2,4′-piperidin]-6-yl)benzamide], the IC50 was determined as 3.5 nM at Recombinant NAMPT enzyme; 28.3 nM in assay [1]; 6 nM in the assay with primary human B cells; 0.606 nM in assay [2]; 3.56 nM in assay [3]; 7.04 nM in assay [4]. For the same molecule, half-maximal inhibition in the assay on primary human T cells (IC50) was put at 1000 nM.

As for `CC(C)N1CCC2(CC1)CC(=O)c1cc(-c3ccc(C(=O)NCc4cncc(F)c4)cc3)ccc1O2` [N-((5-fluoropyridin-3-yl)methyl)-4-(1′-isopropyl-4-oxospiro[chroman-2,4′-piperidin]-6-yl)benzamide], the IC50 came to 5.5 nM on Recombinant NAMPT enzyme; 78.8 nM in assay [1]; 7.9 nM with primary human B cells; 1.1 nM in assay [2]; 8.8 nM in assay [3]; 20.4 nM in assay [4]. In the assay with primary human T cells, this molecule gave an IC50 of 3300 nM.

`CCCN1CCC2(CC1)CC(=O)c1cc(-c3ccc(C(=O)NCc4cncc(F)c4)cc3)ccc1O2` [N-((5-fluoropyridin-3-yl)methyl)-4-(4-oxo-1′-propylspiro[chroman-2,4′-piperidin]-6-yl)benzamide]: the IC50 on Recombinant NAMPT enzyme came to 3 nM; in assay [1], 18.7 nM; in the assay on primary human B cells, 7.4 nM; in assay [2], 0.556 nM; in assay [3], 3.15 nM; in assay [4], 7.07 nM. In the assay with primary human T cells, this molecule returned an IC50 of 1970 nM.

As for `COCCCCN1CCC2(CC1)CC(=O)c1cc(-c3ccc(C(=O)NCc4cncc(F)c4)cn3)ccc1O2` [N-((5-fluoropyridin-3-yl)methyl)-6-(1′-(4-methoxybutyl)-4-oxospiro[chroman-2,4′-piperidin]-6-yl)nicotinamide], the IC50 at Recombinant NAMPT enzyme came to 4.2 nM; in assay [1] it was 29.4 nM; in the assay on primary human B cells, 10.9 nM; in assay [2] it was 0.847 nM; in assay [3], 4.83 nM; in assay [4] it was 12.1 nM. The midpoint of inhibition in the assay on primary human T cells, the IC50, lay at 5450 nM.

The record behind these values is patent US10017523B2, “NAMPT inhibitors and methods” (Genzyme Corporation, priority 2014, dated 2018).
